pEC50: −log10 of the molar value. Read-outs that look alike come from different tables or passages of the source. Residues, ends and D or L forms follow the SMILES beside them.
Assays:
Format in all cases: cell-based
BB3 [1] = target: T1, BB3 (Homo sapiens, UniProt P32247); assay: Dynamic mass redistribution (DMR), concentration-response; conditions: mean, SEM and n (3); for pEC50: DMR assays pEC50, receptor BB3; for EC50: receptor BB3, read-out: DMR assays pEC50 (converted)
T1 construct: hIL-2Ra signal peptide (N); expressed in transfected cells
T1 sequence (P32247 2-399 limits assumed): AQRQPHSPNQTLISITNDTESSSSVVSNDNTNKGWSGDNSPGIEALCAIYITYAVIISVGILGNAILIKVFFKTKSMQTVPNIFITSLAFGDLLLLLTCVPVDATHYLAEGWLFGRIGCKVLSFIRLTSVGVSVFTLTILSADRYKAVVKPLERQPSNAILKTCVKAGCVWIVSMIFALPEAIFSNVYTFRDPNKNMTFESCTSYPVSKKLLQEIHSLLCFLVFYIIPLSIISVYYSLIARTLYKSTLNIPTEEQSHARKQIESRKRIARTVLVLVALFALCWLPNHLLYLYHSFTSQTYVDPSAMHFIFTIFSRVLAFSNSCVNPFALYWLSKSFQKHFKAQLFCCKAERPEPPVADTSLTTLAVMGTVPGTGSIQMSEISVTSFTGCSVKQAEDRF

BB3 [2] = target: T1, BB3; assay: IP1 accumulation (Gq/11), HTRF; conditions: mean, SEM and n (2-4); for pEC50: IP1 accumulation assays pEC50, receptor BB3; for EC50: read-out: IP1 accumulation assays pEC50 (converted)
BB3 [3] = target: T1, BB3; assay: Real-time receptor internalization (TR-FRET), concentration-response
GPR55 = GPR55 (Homo sapiens, UniProt Q9Y2T6); assay: as above; set-up: hIL-2Ra signal peptide (N); expressed in transfected cells
Protocol: 48 hr prior to parallel assaying, SNAP-tagged oGPCR cells were plated (10,000 cells/well) in fibronectin-coated 384-well Epic biosensor microplates (Corning) and poly-D-lysine coated white 384-well plates (for internalization assays). SNAP- GLP-1 receptor was plated alongside orphan receptor cells as an internal assay control for internalization assays. Receptor-expression was induced with 0.1 μg/ml doxycycline.
A TR-FRET real-time internalization assay was used to examine peptide-dependent changes in orphan receptor localization as described previously ([Foster and Bräuner-Osborne, 2018]). Surface-expressed SNAP-tagged receptors were labeled with a cell-impermeable luminescent terbium cryptate (100 nM SNAP Lumi4-Tb; Cisbio, France) for 1 hr at 37°C. Cells were washed to remove excess terbium and incubated with fluorescein-O-acetic acid (100 μM; Sigma Aldrich) for 5 min at 37°C. Peptides were added as for DMR assays, and internalization responses were recorded for 60 min at 37°C using an EnVision 2104 Multimode plate reader (PerkinElmer). 100 nM GLP-1 was used as a positive control for SNAP-GLP1R internalization. Real-time internalization responses were calculated based on TR-FRET (excitation 340 nm; emission 520 nm and 615 nm), and were expressed as the ratio between donor (terbium) and acceptor (fluorescein) emission. For peptide screening analysis (both DMR and internalization assays), we calculated the area under the curve from the real-time traces. […] Validation experiments for receptor internalization were performed as above. Internalization data was processed in MS-Excel and area under the curve was used to generate concentration-response curves using GraphPad Prism 7.0. Data represent mean ± standard error of the mean (SEM) from at least 3 biologically independent experiments.

GPR1 [4] = target: T2, GPR1 (Homo sapiens, UniProt P46091); assay: β-arrestin recruitment (PathHunter); conditions: receptor GPR1; mean, SEM and n (2-3); read-out: b-arrestin recruitment assays (PathHunter) pEC50 (converted)
T2 sequence (P46091 1-355): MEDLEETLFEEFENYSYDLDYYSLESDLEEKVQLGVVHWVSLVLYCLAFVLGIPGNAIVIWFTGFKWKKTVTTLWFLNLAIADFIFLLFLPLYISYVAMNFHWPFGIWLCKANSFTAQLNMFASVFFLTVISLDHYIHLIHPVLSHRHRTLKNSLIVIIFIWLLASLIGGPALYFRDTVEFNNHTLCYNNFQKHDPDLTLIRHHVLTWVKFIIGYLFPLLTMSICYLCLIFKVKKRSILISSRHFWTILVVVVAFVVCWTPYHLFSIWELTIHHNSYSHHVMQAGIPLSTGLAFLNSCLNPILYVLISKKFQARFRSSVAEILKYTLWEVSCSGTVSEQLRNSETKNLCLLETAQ
Protocol: PathHunter eXpress Assays (DiscoverX) were performed in 384-well format according to the manufacturer’s recommendations. GPR1 cells were incubated with peptides for 90 min and luminescence measured using an EnSpire 2300 Multimode plate reader (PerkinElmer).

GPR1 [5] = target: T2, GPR1; assay: β-arrestin recruitment (Tango), validation; set-up: host or cells: HTLA cells (HEK293-derived); conditions: receptor GPR1; mean, SEM and n (2-3); read-out: b-arrestin recruitment assays (Tango) pEC50 (converted)
[6] = receptor GPR55, mean, SEM and n (3-4), read-out: Internalization assays pEC50 (converted)

Chain of GPR55 (Q9Y2T6 2-319 limits assumed): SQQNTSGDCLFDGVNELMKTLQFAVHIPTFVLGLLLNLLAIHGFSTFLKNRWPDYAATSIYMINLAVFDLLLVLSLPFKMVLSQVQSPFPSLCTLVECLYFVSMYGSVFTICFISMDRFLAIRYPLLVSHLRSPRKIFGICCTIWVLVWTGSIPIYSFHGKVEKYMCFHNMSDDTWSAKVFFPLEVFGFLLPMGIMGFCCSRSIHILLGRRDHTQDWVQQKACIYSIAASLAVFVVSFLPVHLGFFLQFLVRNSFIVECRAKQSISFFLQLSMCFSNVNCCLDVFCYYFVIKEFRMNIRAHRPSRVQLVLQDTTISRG

CSCC[C@H](NC(=O)[C@H](Cc1ccccc1)NC(=O)CNC(=O)CNC(=O)[C@@H](N)Cc1ccc(O)cc1)C(=O)O [158.1 (Phoenix)]
pEC50 (BB3 [1]): 7.19
pEC50 (BB3 [2]): 7.90

CC(C)C[C@H](NC(=O)[C@H](CCCCN)NC(=O)[C@H](CCC(N)=O)NC(=O)[C@@H](NC(=O)[C@H](CCCCN)NC(=O)[C@H](CO)NC(=O)[C@H](Cc1ccc(O)cc1)NC(=O)[C@H](Cc1c[nH]cn1)NC(=O)[C@H](Cc1ccccc1)NC(=O)[C@H](CC(C)C)NC(=O)[C@@H](N)Cc1ccccc1)[C@@H](C)O)C(=O)NCC(=O)N[C@@H](CCCCN)C(=O)N[C@@H](CO)C(=O)N[C@@H](CC(N)=O)C(=O)N[C@H](C(=O)N[C@H](C(=O)N[C@@H](CO)C(=O)N[C@@H](CO)C(=O)N[C@H](C(=O)N[C@H](C(=O)N[C@@H](Cc1c[nH]cn1)C(=O)N1CCC[C@H]1C(=O)N[C@@H](CC(C)C)C(=O)N[C@@H](CC(C)C)C(=O)N[C@@H](CCC(N)=O)C(=O)N[C@@H](CC(C)C)C(=O)N[C@H](C(=O)N1CCC[C@H]1C(=O)N[C@@H](Cc1c[nH]cn1)C(=O)N[C@@H](CC(C)C)C(=O)N[C@@H](Cc1c[nH]cn1)C(=O)N[C@@H](CCC(=O)O)C(=O)O)C(C)C)C(C)C)C(C)C)C(C)C)C(C)C [Peptide 67.1] (H-FLFHYSKTQKLGKSNVVSSVVHPLLQLVPHLHE-OH)
EC50 (BB3 [1]): 32400 nM
EC50 (BB3 [2]; receptor BB3): 4270 nM

CSCC[C@H](NC(=O)[C@H](CCCNC(=N)N)NC(=O)[C@H](CCCNC(=N)N)NC(=O)[C@H](CCC(=O)O)NC(=O)[C@H](Cc1c[nH]cn1)NC(=O)[C@H](CC(C)C)NC(=O)[C@H](Cc1c[nH]cn1)NC(=O)[C@@H]1CCCN1C(=O)[C@@H](NC(=O)[C@H](CC(C)C)NC(=O)[C@H](CCC(N)=O)NC(=O)[C@H](CC(C)C)NC(=O)[C@H](CC(C)C)NC(=O)[C@@H]1CCCN1C(=O)[C@H](Cc1c[nH]cn1)NC(=O)[C@@H](NC(=O)[C@@H](NC(=O)[C@H](CO)NC(=O)[C@H](CO)NC(=O)[C@@H](NC(=O)[C@@H](NC(=O)[C@H](CC(N)=O)NC(=O)[C@H](CO)NC(=O)[C@H](CCCCN)NC(=O)CNC(=O)[C@H](CC(C)C)NC(=O)[C@H](CCCCN)NC(=O)[C@H](CCC(N)=O)NC(=O)[C@@H](NC(=O)[C@H](CCCCN)NC(=O)[C@H](CO)NC(=O)[C@H](Cc1ccc(O)cc1)NC(=O)[C@H](Cc1c[nH]cn1)NC(=O)[C@H](Cc1ccccc1)NC(=O)[C@H](CC(C)C)NC(=O)[C@@H](N)Cc1ccccc1)[C@@H](C)O)C(C)C)C(C)C)C(C)C)C(C)C)C(C)C)C(=O)O [Peptide 67.2] (H-FLFHYSKTQKLGKSNVVSSVVHPLLQLVPHLHERRM-OH)
EC50 (BB3 [1]): 38000 nM
EC50 (BB3 [2]; receptor BB3): 1170 nM

CC(C)C[C@H](NC(=O)[C@H](CCCCN)NC(=O)[C@H](CCC(N)=O)NC(=O)[C@@H](NC(=O)[C@H](CCCCN)NC(=O)[C@H](CO)NC(=O)[C@H](Cc1ccc(O)cc1)NC(=O)[C@H](Cc1c[nH]cn1)NC(=O)[C@H](Cc1ccccc1)NC(=O)[C@H](CC(C)C)NC(=O)[C@@H](N)Cc1ccccc1)[C@@H](C)O)C(N)=O [Peptide 67] (H-FLFHYSKTQKL-NH2; N-terminus assumed)
EC50 (BB3 [3]; SNAP-tagged BB3 in Flp-In T-REx 293 cells, TR-FRET 60 min, 37°C, AUC, mean ± SEM of 3-4 independent experiments in triplicate, read-out: pEC50, internalization, BB3 (converted)): > 10000 nM

CC[C@H](C)[C@H](NC(=O)[C@H](CC(=O)O)NC(=O)[C@@H](NC(=O)[C@H](Cc1ccc(O)cc1)NC(=O)[C@@H](NC(=O)CNC(=O)[C@H](CC(N)=O)NC(=O)[C@@H](NC(=O)[C@H](CC(C)C)NC(=O)[C@H](Cc1ccc(O)cc1)NC(=O)[C@H](CC(=O)O)NC(=O)[C@H](CC(C)C)NC(=O)[C@H](CCCNC(=N)N)NC(=O)[C@H](CO)NC(=O)[C@H](Cc1ccc(O)cc1)NC(=O)[C@H](CCCNC(=N)N)NC(=O)[C@@H](N)CCCCN)[C@@H](C)CC)[C@@H](C)CC)C(C)C)C(=O)O [Peptide 114] (H-KRYSRLDYLINGIYVDI-OH; N-terminus assumed)
EC50 (GPR55; read-out: pEC50, internalization, GPR55 (converted)): > 10000 nM

CSCC[C@H](NC(=O)[C@H](Cc1ccccc1)NC(=O)CNC(=O)CNC(=O)[C@@H](N)Cc1ccc(O)cc1)C(=O)N[C@@H](CCCNC(=N)N)C(=O)N[C@@H](CCCNC(=N)N)C(=O)N[C@H](C(N)=O)C(C)C [Peptide 158.3]
pEC50 (BB3 [1]): 4.81
pEC50 (BB3 [2]): 7.05

CSCC[C@H](NC(=O)[C@H](Cc1ccccc1)NC(=O)CNC(=O)CNC(=O)[C@@H](N)Cc1ccc(O)cc1)C(=O)N[C@@H](CCCNC(=N)N)C(=O)N[C@@H](CCCNC(=N)N)C(=O)N[C@H](C(=O)NCC(=O)N[C@@H](CCCNC(=N)N)C(=O)N1CCC[C@H]1C(=O)N[C@@H](CCC(=O)O)C(=O)N[C@@H](Cc1c[nH]c2ccccc12)C(=O)N[C@@H](Cc1c[nH]c2ccccc12)C(=O)N[C@@H](CCSC)C(=O)N[C@@H](CC(=O)O)C(=O)N[C@@H](Cc1ccc(O)cc1)C(=O)N[C@@H](CCC(N)=O)C(=O)O)C(C)C [Peptide 158.5] (H-YGGFMRRVGRPEWWMDYQ-OH)
pEC50 (BB3 [1]): 4.16
pEC50 (BB3 [2]): 7.00

CSCC[C@H](NC(=O)[C@H](CCCCN)NC(=O)[C@@H](NC(=O)[C@H](CC(C)C)NC(=O)[C@@H](NC(=O)[C@@H](NC(=O)CNC(=O)CNC(=O)CNC(=O)[C@H](C)NC(=O)[C@@H]1CCCN1C(=O)[C@H](CC(C)C)NC(=O)[C@@H]1CCCN1C(=O)[C@@H](N)C(C)C)[C@@H](C)O)C(C)C)[C@@H](C)O)C(=O)N[C@@H](Cc1ccc(O)cc1)C(=O)N1CCC[C@H]1C(=O)N[C@@H](CCCNC(=N)N)C(=O)O [Peptide 167.2] (H-VPLPAGGGTVLTKMYPR-OH)
EC50 (BB3 [2]; receptor BB3): 525 nM
EC50 (GPR1 [4]): 2290 nM
EC50 (GPR1 [5]): 3020 nM

CC(C)C[C@H](NC(=O)[C@@H](NC(=O)[C@H](C)NC(=O)[C@H](C)NC(=O)[C@H](CC(C)C)NC(=O)[C@@H](N)Cc1ccc(O)cc1)C(C)C)C(N)=O [Peptide 168.2] (H-YLAAVL-NH2)
EC50 (GPR55; [6]): 20400 nM

CSCC[C@H](NC(=O)[C@@H](N)CCC(N)=O)C(=O)N[C@@H](C)C(=O)N[C@H](C(=O)N[C@@H](CCCCN)C(=O)N[C@@H](CCCCN)C(=O)N[C@@H](Cc1ccc(O)cc1)C(=O)N[C@@H](CC(C)C)C(=O)N[C@@H](C)C(=O)N[C@@H](C)C(=O)N[C@H](C(=O)N[C@@H](CC(C)C)C(N)=O)C(C)C)C(C)C [Peptide 168.3]
EC50 (GPR55; [6]): 0.219 nM

CC[C@H](C)[C@H](NC(=O)CNC(=O)[C@H](CC(=O)O)NC(=O)[C@H](CO)NC(=O)[C@@H](N)Cc1c[nH]cn1)C(=O)N[C@@H](Cc1ccccc1)C(=O)N[C@H](C(=O)N[C@@H](CC(=O)O)C(=O)N[C@@H](CO)C(=O)N[C@@H](Cc1ccc(O)cc1)C(=O)N[C@@H](CO)C(=O)N[C@@H](CCCNC(=N)N)C(=O)N[C@@H](Cc1ccc(O)cc1)C(=O)O)[C@@H](C)O [Peptide 168.4] (H-HSDGIFTDSYSRY-OH)
EC50 (GPR55; [6]): 316 nM

YGGFMRRVGRPEWWMDYQKRYGGFL [158 original]
Internalization assays Emax (AUC) (BB3 [3]; receptor BB3, mean, SEM and n (3)): 16.0
IP1 accumulation assays Emax (BB3 [2]; receptor BB3): 164.0 nM

— publication PMC6838683, “Discovery of Human Signaling Systems: Pairing Peptides to G Protein-Coupled Receptors” (Cell, 2019)
